Measurements as given in publication PMC12504763, “Antiproliferation, 3D-multicellular spheroid and VEGFR-2 inhibitory properties of spiroindolin-2-ones with phosphonate function” (Scientific Reports, 2025).
Like-named read-outs stand apart in the source and are kept apart here.

Columns and labels:
[1] = tested on: MCF7 (breast) cancer cell line; experiment: 2D-monolayer antiproliferation (MTT) against MCF7; type: cell-based, human; settings: for IC50: Homo sapiens, MTT, 72 h incubation, MCF7 breast, read-out: IC50, μM ± SEM MCF7; for SI (selectivity index) MCF7: IC50 of RPE1 normal cell/IC50 of MCF7
[2] = tested on: HCT116 (colon) cancer cell line; experiment: 2D-monolayer antiproliferation (MTT) against HCT116; type: cell-based, human; settings: for IC50: Homo sapiens, HCT-116; for SI (selectivity index) HCT116: IC50 of RPE1 normal cell/IC50 of HCT116
[3] = tested on: PaCa2 (pancreatic) cancer cell line; experiment: 2D-monolayer antiproliferation (MTT) against PaCa2; type: cell-based, human; settings: for 1/(observed property): 1/observed IC50 (μM), PaCa2; for IC50: Homo sapiens, PaCa-2, MTT, 72 h incubation, PaCa2 pancreatic, read-out: IC50, μM ± SEM PaCa2; for SI (selectivity index) PaCa2: IC50 of RPE1 normal cell/IC50 of PaCa2
COX-1 = target: T1, COX-1 (Ovis aries, UniProt P05979); experiment: biochemical; settings: 3 replicates, read-out: % Inhibition of COX-1 ± SEM
T1 construct: purchased BioVision incorporated USA K548–100
T1 sequence (P05979 25-600): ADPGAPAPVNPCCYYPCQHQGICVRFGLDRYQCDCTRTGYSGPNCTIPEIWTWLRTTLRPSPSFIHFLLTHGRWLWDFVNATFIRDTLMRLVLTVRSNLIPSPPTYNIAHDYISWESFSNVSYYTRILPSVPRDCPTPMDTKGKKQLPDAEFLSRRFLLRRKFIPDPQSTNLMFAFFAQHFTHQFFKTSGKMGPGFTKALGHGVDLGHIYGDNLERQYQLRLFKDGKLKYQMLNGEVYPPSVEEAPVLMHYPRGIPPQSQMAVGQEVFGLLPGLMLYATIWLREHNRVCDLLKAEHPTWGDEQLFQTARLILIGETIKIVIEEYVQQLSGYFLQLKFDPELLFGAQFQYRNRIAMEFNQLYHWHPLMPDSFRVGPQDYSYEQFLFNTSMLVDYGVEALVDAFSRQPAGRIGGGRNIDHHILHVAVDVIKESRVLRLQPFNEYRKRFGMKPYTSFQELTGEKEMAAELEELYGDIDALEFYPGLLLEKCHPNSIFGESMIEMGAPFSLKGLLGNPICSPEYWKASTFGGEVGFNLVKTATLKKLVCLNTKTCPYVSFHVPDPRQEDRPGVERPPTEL

VEGFR-2 [4] = target: T2, VEGFR-2 (Homo sapiens, UniProt P35968); experiment: cell-based; type: cell-based; settings: for inhibition at 10 µM: HCT-116, HCT116; for VEGFR-2 pg/mL ± SEM HCT116: at 10 μM, control 317.80 ± 3.5
T2 construct: endogenous in cells; host or cells: HCT116, PaCa2, MCF7 (human cancer cell lines, ATCC origin)
T2 sequence (P35968 20-1356): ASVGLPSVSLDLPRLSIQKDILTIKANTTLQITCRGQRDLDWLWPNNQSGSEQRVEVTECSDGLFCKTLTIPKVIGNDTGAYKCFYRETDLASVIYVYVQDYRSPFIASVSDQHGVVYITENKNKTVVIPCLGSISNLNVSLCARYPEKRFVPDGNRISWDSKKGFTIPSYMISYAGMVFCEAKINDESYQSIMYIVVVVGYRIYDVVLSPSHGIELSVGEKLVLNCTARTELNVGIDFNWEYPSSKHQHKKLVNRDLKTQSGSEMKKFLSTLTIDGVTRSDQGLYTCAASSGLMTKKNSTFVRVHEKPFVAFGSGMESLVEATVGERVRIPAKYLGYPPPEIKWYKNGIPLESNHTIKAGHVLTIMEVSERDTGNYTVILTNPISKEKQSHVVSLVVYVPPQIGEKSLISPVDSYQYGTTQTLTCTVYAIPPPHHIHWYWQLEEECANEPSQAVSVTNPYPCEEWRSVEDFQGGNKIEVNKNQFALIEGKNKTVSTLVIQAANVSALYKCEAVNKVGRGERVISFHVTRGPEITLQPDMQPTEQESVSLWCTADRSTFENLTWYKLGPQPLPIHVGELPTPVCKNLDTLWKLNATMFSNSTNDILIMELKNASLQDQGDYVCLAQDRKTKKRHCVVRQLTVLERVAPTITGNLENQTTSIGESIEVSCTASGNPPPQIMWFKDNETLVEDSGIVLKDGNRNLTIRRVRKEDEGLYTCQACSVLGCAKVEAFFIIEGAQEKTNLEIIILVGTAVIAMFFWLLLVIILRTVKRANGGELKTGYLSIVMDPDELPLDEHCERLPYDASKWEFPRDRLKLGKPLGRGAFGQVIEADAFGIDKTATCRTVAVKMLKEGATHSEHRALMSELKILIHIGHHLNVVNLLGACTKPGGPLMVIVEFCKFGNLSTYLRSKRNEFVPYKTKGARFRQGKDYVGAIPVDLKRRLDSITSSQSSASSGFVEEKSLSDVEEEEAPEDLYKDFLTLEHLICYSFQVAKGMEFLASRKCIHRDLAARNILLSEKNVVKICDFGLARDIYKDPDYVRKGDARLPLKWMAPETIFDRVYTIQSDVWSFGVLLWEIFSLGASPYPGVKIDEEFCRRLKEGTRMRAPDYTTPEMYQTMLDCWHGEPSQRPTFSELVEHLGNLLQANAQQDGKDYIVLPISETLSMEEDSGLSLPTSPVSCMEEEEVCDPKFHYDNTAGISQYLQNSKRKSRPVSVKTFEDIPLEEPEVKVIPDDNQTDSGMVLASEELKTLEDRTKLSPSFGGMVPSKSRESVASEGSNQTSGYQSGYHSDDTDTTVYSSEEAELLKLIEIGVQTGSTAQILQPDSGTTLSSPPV

[5] = tested on: RPE1 (normal human immortalized retinal pigment epithelial cell line); experiment: cells; type: cell-based; settings: for IC50: Homo sapiens, RPE-1, MTT, normal RPE1 cell, read-out: IC50, μM ± SEM RPE1
[6] = tested on: A549 (lung) cancer cell line; experiment: 2D-monolayer antiproliferation (MTT) against A549; type: cell-based, human; settings: for IC50: Homo sapiens, MTT, 72 h incubation, A549 lung, read-out: IC50, μM ± SEM A549; for SI (selectivity index) A549: IC50 of RPE1 normal cell/IC50 of A549
TNF-α [7] = experiment: TNF-α inhibitory properties (ELISA), HCT116 cell lysate; type: cell-based, human; settings: at 10 μM; for TNF-α pg/mL (± SEM) HCT116: control 95.74 ± 0.5
TNF-α [8] = experiment: TNF-α inhibitory properties (ELISA), PaCa2 cell lysate; type: cell-based, human; settings: for TNF-α pg/mL (± SEM) PaCa2 / TNF-α % inhibition PaCa2: at 10 μM; for TNF-α pg/mL (± SEM) PaCa2: control 111.8 ± 2.0
VEGFR-2 [9] = target: T2, VEGFR-2; experiment: cell-based; type: cell-based; settings: for inhibition at 10 µM: PaCa-2, PaCa2; for VEGFR-2 pg/mL ± SEM PaCa2: at 10 μM, control 326.80 ± 1.9
CAM blood vessel network = experiment: Chick chorioallantoic membrane (CAM) anti-angiogenic assay; type: in vivo, chicken; settings: 20 μL of 660 μM, 3 days; for Diameter of blood vessel (μm ± SEM): CAM test, control 459.7 ± 13.8
Description: CAM assay is an established xenograft technique for investigating the angiogenic effect due to the high resemblance of the human vascularized epithelium basement membrane with that of the chorioallantoic layer containing mainly type IV collagen[84]–[86].
Fig. 10 Images of light microscopy for anti-angiogenic evaluation of the tested compounds using CAM assay. […] The glass slide was placed on the surface of the CAM blood vessel network and left in an incubator at 37 °C for 3 days. The CAM blood vessel network was carefully cut and imaged under a light microscope (40 × magnification).
Fertilized white chicken eggs were incubated in a 37 °C incubator with constant humidity. On day 8, a small squared window was opened allowing the detachment of the growing CAM and shell. The opening was covered with an elastic bandage. […] The CAM was then sealed with a bandage and placed back in the incubator. CAMs were examined daily until day 12 (3 days), the vascularized membranes were then cut around the glass slide and fixed in 5% formalin. Images were taken with an Evos microscope at 40x and 100x magnification^9. Main blood vessel in the microscopic images of controls and samples were quantified by imageJ and analyzed for significant differences (n = 4).

TNF-α [10] = experiment: TNF-α inhibitory properties (ELISA), MCF7 cell lysate; type: cell-based, human; settings: at 10 μM; for TNF-α pg/mL (± SEM) MCF7: control 83.26 ± 1.1
VEGFR-2 [11] = target: T2, VEGFR-2; experiment: cell-based; type: cell-based; settings: for inhibition at 10 µM: MCF7; for VEGFR-2 pg/mL ± SEM MCF7: at 10 μM, control 258.70 ± 2.3
COX-2 = target: T3, COX-2 (Homo sapiens, UniProt P35354); experiment: biochemical; settings: for inhibition at 10 µM: 3 replicates, read-out: % Inhibition of COX-2 ± SEM; for SI (selectivity index, COX-2/COX-1): at 10 μM
T3 construct: purchased BioVision incorporated USA K548–100
T3 sequence (P35354 18-604): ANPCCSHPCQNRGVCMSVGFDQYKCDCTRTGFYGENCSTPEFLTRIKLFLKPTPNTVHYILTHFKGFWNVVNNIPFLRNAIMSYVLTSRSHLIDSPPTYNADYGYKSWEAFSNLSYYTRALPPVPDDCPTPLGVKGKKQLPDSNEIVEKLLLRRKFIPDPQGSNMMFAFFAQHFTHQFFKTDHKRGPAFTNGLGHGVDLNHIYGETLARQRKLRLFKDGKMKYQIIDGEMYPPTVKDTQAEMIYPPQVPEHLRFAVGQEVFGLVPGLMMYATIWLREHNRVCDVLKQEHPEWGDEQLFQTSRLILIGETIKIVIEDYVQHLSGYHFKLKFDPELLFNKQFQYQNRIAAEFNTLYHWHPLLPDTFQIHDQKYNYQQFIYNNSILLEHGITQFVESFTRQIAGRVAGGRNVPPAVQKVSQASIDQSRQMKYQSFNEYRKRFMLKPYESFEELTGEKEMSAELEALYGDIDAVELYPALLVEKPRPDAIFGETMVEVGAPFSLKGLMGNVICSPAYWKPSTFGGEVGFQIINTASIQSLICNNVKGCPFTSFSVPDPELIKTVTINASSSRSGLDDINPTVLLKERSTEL

[12] = MTT, 72 h incubation, HCT116 colon, read-out: IC50, μM ± SEM HCT116
[13] = log of observed IC50 (μM), HCT116, read-out: Log(observed property) (converted)

Compound | IC50 [1] | SI (selectivity index) MCF7 [1] | IC50 [2, 12] | SI (selectivity index) HCT116 [2] | 1/(observed property) [3] | IC50 [3] | SI (selectivity index) PaCa2 [3] | inhibition at 10 µM (COX-1) | inhibition at 10 µM (VEGFR-2 [4]) | VEGFR-2 pg/mL ± SEM HCT116 (VEGFR-2 [4]) | IC50 [5] | IC50 [6] | TNF-α pg/mL (± SEM) HCT116 (TNF-α [7]) | TNF-α pg/mL (± SEM) PaCa2 (TNF-α [8]) | inhibition at 10 µM (VEGFR-2 [9]) | VEGFR-2 pg/mL ± SEM PaCa2 (VEGFR-2 [9]) | TNF-α % inhibition MCF7 (TNF-α [10]) | TNF-α pg/mL (± SEM) MCF7 (TNF-α [10]) | inhibition at 10 µM (VEGFR-2 [11]) | VEGFR-2 pg/mL ± SEM MCF7 (VEGFR-2 [11]) | also measured
CCOP(=O)(OCC)N1C/C(=C\c2ccccc2)C(=O)C2(C1)C(c1ccccc1)CN(C)C21C(=O)Nc2ccccc21 (stereo not shown) [Compound 17a, Diethyl (E)-(5′′-benzylidene-1′-methyl-2,4′′-dioxo-4′-phenyldispiro[indoline-3,2′-pyrrolidine-3′,3′′-piperidin]-1′′-yl)phosphonate] | 5.86 ± 0.259 µM | 2.9 | 7.97 ± 0.338 µM | 2.1 | 0.0774 | 12.9 ± 0.559 µM | 1.3 | 49.8 ± 1.8% | 88% | 38.20 ± 1.6 pg/mL | 16.8 ± 0.516 µM | 14.5 ± 0.259 µM | 24.86 ± 0.8 pg/mL | 24.8 ± 1.5 pg/mL | 94.1% | 19.26 ± 1.0 pg/mL | 78.1% | 18.25 ± 1.1 pg/mL | 80.1% | 51.50 ± 0.8 pg/mL | IC50 [2, 13]: 7.97 µM; SI (selectivity index) A549 [6]: 1.2; TNF-α % inhibition HCT116 (TNF-α [7]): 74.0%; Diameter of blood vessel (μm ± SEM) (CAM blood vessel network): 80.7 ± 3.7 μm; inhibition at 10 µM (COX-2): 64.9 ± 2.8%
CCOP(=O)(OCC)N1C/C(=C\c2ccc(Cl)cc2)C(=O)C2(C1)C(c1ccc(Cl)cc1)CN(C)C21C(=O)Nc2ccc(F)cc21 (stereo not shown) [Compound 17i, Diethyl (E)-(5′′-(4-chlorobenzylidene)-4′-(4-chlorophenyl)-5-fluoro-1′-methyl-2,4′′-dioxodispiro[indoline-3,2′-pyrrolidine-3′,3′′-piperidin]-1′′-yl)phosphonate] | 4.81 ± 0.148 µM | > 10.4 | 4.14 ± 0.042 µM | > 12.1 | 0.07435 | 13.5 ± 0.898 µM | > 3.7 | 46.2 ± 2.4% | 74.4% | 81.40 ± 1.9 pg/mL | > 50 µM | > 50 µM | 28.56 ± 0.9 pg/mL | 22.8 ± 1.6 pg/mL | 86.9% | 42.76 ± 0.7 pg/mL | 62.4% | 31.27 ± 1.3 pg/mL | 80.9% | 49.50 ± 0.3 pg/mL | IC50 [2, 13]: 4.14 µM; selectivity index (SI) ([5]; IC50 against RPE1 compared to the tested cancer cell line(s), in words): high selectivity index; TNF-α inhibition fold of the standard ibuprofen (TNF-α [8]; 10 μM): 1.9 fold; TNF-α inhibition fold of the standard indomethacin (TNF-α [8]; 10 μM): 2.4 fold; TNF-α % inhibition PaCa2 (TNF-α [8]): 79.6%; % Inhibition of the blood vessels in CAM test (CAM blood vessel network): 52.3%; Diameter of blood vessel (μm ± SEM) (CAM blood vessel network): 219.3 ± 5.6 μm; inhibition at 10 µM (COX-2): 49.7 ± 1.9%; SI (selectivity index, COX-2/COX-1) (COX-2): 1.09
CCOP(=O)(OCC)N1C/C(=C\c2cccs2)C(=O)C2(C1)C(c1cccs1)CN(C)C21C(=O)Nc2ccc(C)cc21 (stereo not shown) [Compound 17t, Diethyl (E)-(1′,5-dimethyl-2,4′′-dioxo-4′-(thiophen-2-yl)-5′′-(thiophen-2-ylmethylene)dispiro[indoline-3,2′-pyrrolidine-3′,3′′-piperidin]-1′′-yl)phosphonate] | 6.45 ± 0.111 µM | 3.9 | 7.34 ± 0.161 µM | 3.5 | 0.1056 | 9.47 ± 0.097 µM | 2.7 | 49.2 ± 1.9% | 60.8% | 124.70 ± 1.3 pg/mL | 25.4 ± 0.951 µM | 14.1 ± 0.201 µM | 81.64 ± 2.1 pg/mL | 95.8 ± 2.5 pg/mL | 64.8% | 115.00 ± 0.9 pg/mL | 0.4% | 82.91 ± 3.8 pg/mL | 62.6% | 96.70 ± 1.2 pg/mL | SI (selectivity index) A549 [6]: 1.8; TNF-α % inhibition HCT116 (TNF-α [7]): 14.7%; TNF-α % inhibition PaCa2 (TNF-α [8]): 14.3%; inhibition at 10 µM (COX-2): 63.7 ± 1.7%; SI (selectivity index, COX-2/COX-1) (COX-2): 1.29
